In US10251402B2, “Methods and compositions for controlling leaf-cutting ant populations” (ISCA Technologies, Inc., priority 2015, dated 2019):
Like-named read-outs stand apart in the source and are kept apart here.

Tests used:
[1] = tested on: Leucoagaricus gongylophorus; conditions: for Growth Evaluation: 30-day incubation, median of five replicates
Protocol: A similar lab trial was designed and performed to evaluate the fungicidal capacities of these botanical oils in addition to their fungistatic properties against L. gongylophorus. For this test, the plant oils were incorporated directly into the fungal growth medium at different concentrations (0.1, 1, and 5%). The growth of the fungus on this medium was evaluated after a 30-day incubation period, based on the quantity and density of the mycelium, according to the following pattern. Growth was characterized by the following measure: 5+ indicated growth identical to the control treatment (medium alone, with no plant oil treatment), or 100% growth; 4+ indicated growth equivalent to 80% of the control treatment growth; 3+ indicated 60%; 2+ indicated 40%; 1+ indicated 20%; and 0 indicated total elimination of the fungal colony.

[2] = tested on: Leucoagaricus gongylophorus; experiment: Fungistatic inhibition: fungal inoculations exposed to wells containing botanical oils, mycelial growth toward the well vs unexposed controls; type: cell-based; conditions: 21 days exposure to well containing oil; mycelial growth toward well vs unexposed control

COC(=O)c1ccccc1O [Methyl Salicylate]
fungal mortality [1]: 100% | Growth Evaluation ([1]; concentration 0.1% in medium): 3+ (3+ indicated 60%) | Growth Evaluation ([1]; concentration 1% in medium): 0 | Growth Evaluation ([1]; concentration 5% in medium): 0 | Inhibition (%) of fungal growth (fungistatic) [2]: 100%
